Test results from US11304897B2, “Pharmaceutical formulation containing umeclidinium bromide and vilanterol trifenatate” (ANOVENT PHARMACEUTICAL (U.S.), LLC, priority 2020, dated 2022).
Converted amounts (≈) assume the structure as drawn.

Assay: Solubility in different cosolvents
Format: physicochemical
Source text: Solubility in Different Cosolvents: 5% tween-80: Dissolve 5 g tween-80 in 100 g purified water. 5% Sulfobutylether β-cyclodextrin: Dissolve 5 g Sulfobutylether β-cyclodextrin in 100 g purified water. 20% Sulfobutylether β-cyclodextrin: Dissolve 20 g Sulfobutylether β-cyclodextrin in 100 g purified water.

[1] = 0.2 mg/ml tween-80, aqueous with cosolvent or surfactant or cyclodextrin
[2] = 5% sulfobutylether β-cyclodextrin in purified water, aqueous with cosolvent or surfactant or cyclodextrin
[3] = 5% tween-80 in purified water, aqueous with cosolvent or surfactant or cyclodextrin, 5% tween -80
[4] = 20% sulfobutylether β-cyclodextrin in purified water, aqueous with cosolvent or surfactant or cyclodextrin

| solubility [1] | solubility [2] | solubility [3] | solubility [4] | solubility (in words) (purified water) | solubility (purified water, water) | SMILES |
| --- | --- | --- | --- | --- | --- | --- |
| 582 µg/mL | 3560 µg/mL | 3540 µg/mL | 3450 µg/mL | almost insoluble | 618 µg/mL | OC(c1ccccc1)(c1ccccc1)C12CC[N+](CCOCc3ccccc3)(CC1)CC2.[Br-] [UB, 1-[2-(benzyloxy)ethyl]-4-(hydroxydiphenylmethyl)-1-azoniabicyclo[2.2.2]octane bromide] |
| 62.6 µg/mL (≈ 129 µM) | 370 µg/mL (≈ 760 µM) | 1370 µg/mL (≈ 2820 µM) | 1400 µg/mL (≈ 2880 µM) | almost insoluble | 53.7 µg/mL (≈ 110 µM) | OCc1cc([C@@H](O)CNCCCCCCOCCOCc2c(Cl)cccc2Cl)ccc1O [VT, triphenylacetic acid-4-{(1R)-2-[(6-{2-[(2,6-dicholorobenzyl)oxy]ethoxy}hexyl)amino]-1-hydroxyethyl}-2-(hydroxymethyl)phenol (1:1)] |
